The record followed here is patent publication US12459951B2, “Compounds that interact with RAS superfamily proteins for treatment of cancers, inflammatory diseases, rasopathies, and fibrotic disease” (SHY Therapeutics, LLC, priority 2022, dated 2025).

One assay deals with Erk1/2 phosphorylation. The assay is described as follows: Erk1/2 Phosphorylation Assay (western blot), Panc-1. The conditions noted are these: at 10 μM, * = activation. In kind it is cell-based, human. In short, it runs like this: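 Phospho-Erk1/2 (Thr202/Tyr204) was detected by western blot in lysates of Panc-1 cells (KRas G12D). These had 6 h, 37° C exposure to 10 μM compound or a dilution series for IC50, in 0.3% DMSO. Cells were either starved overnight in 0.5% FBS with a 15-min 1.5 ng/ml EGF pulse, or kept unstimulated in 10% FBS.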

Assay [1] has as its system MiaPaca-2 (expressing KRAS G12C mutant). The assay can be described thus: Proliferation Assay (Cell Viability Assay). In kind it is cell-based. The conditions noted are these: Homo sapiens, MIA PaCa-2. In short, it runs like this:
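After 2–4 days' exposure at 37 °C, 5% CO2 to a single 10 μM final concentration or a dilution series (IC50), percent proliferation inhibition was derived from CellTiter 96 Aqueous One viability readings. The medium contained 0.3% DMSO and 10% FBS. KRAS G12C MiaPaca-2 cells were plated at 2000–5000/well the day before.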

Where [2] appears, read: read-out: Proliferation in MiaPaca-2: IC50.
[3] abbreviates: Proliferation assay, MiaPaca-2, read-out: MiaPaca-2 IC50 (nM) Pancreatic.

Read-outs that look alike come from different tables or passages of the source.

Turning to `CO[C@H]1C[C@H](Nc2nc(-c3nccn3C)nn3cc(-c4ccc(CCN)cc4)c(-c4ccccc4)c23)C1.Cl` [Compound 207, 6-(4-(2-Aminoethyl)phenyl)-N-((1r,3r)-3-methoxycyclobutyl)-2-(1-methyl-1H-imidazol-2-yl)-5-phenylpyrrolo[2,1-f][1,2,4]triazin-4-amine hydrochloride salt], in the assay with Erk1/2 phosphorylation, the “% inh of Erk1/2 phosphorylation in Panc-1” value (shortened to “% inh”) is recorded as “D* (85-100% activation)”. Moreover, the IC50 in assay [1] (setting [2]) was greater than 1000 nM.
Consider `CO[C@@H]1C[C@H]1Nc1nc(-c2nccn2C)nn2cc(-c3ccncc3)c(-c3ccccc3)c12` (racemic) [Compound 197, rac N-((1R,2R)-2-methoxycyclopropyl)-2-(1-methyl-1H-imidazol-2-yl)-5-phenyl-6-(pyridin-4-yl)pyrrolo[2,1-f][1,2,4]triazin-4-amine], for which, in the assay with Erk1/2 phosphorylation, the “% inh” value was “D* (85-100% activation)”. The IC50 in assay [1] (setting [2]) is greater than 1000 nM.
As for `COC[C@@H]1CC[C@@H]1CNc1nc(-c2ccccn2)nn2cc(-c3ccn(C(C)C)n3)c(C)c12` (racemic) [Compound 11, rac 6-(1-Isopropyl-1H-pyrazol-3-yl)-N-(((1S,2R)-2-(methoxymethyl)cyclobutyl)methyl)-5-methyl-2-(pyridin-2-yl)pyrrolo[2,1-f][1,2,4]triazin-4-amine], the “% inh” value in the assay on Erk1/2 phosphorylation was 0 (0% inhibition). Further, in assay [1] (setting [2]), the IC50 was greater than 1000 nM.
In the case of `COCCCS(=O)(=O)Nc1nc(-c2nccn2C)nn2cc(-c3ccccc3)c(-c3ccccc3)c12` [Compound 213, 3-Methoxy-N-(2-(1-methyl-1H-imidazol-2-yl)-5,6-diphenylpyrrolo[2,1-f][1,2,4]triazin-4-yl)propane-1-sulfonamide], the “% inh” value with Erk1/2 phosphorylation is “D* (85-100% activation)”. For the same compound, in assay [1] (setting [2]), the IC50 lay in the range of 510 to 1000 nM.
`COc1cccc(-c2cn3nc(-c4nccn4C)nc(N[C@H]4C[C@H](OC)C4)c3c2-c2ccccc2)c1C` [Compound 209, 6-(3-methoxy-2-methylphenyl)-N-((1r,3r)-3-methoxycyclobutyl)-2-(1-methyl-1H-imidazol-2-yl)-5-phenylpyrrolo[2,1-f][1,2,4]triazin-4-amine]: in the assay on Erk1/2 phosphorylation, the “% inh” value is given as “D (85-100% inhibition)”. In assay [1] (setting [2]), the IC50 was 150 to 500 nM.
Turning to `COc1ccnc(Nc2nc(-c3nccn3CCN)nn3cc(-c4ccn(C)n4)c(C)c23)c1` [Compound 188, 2-(1-(2-Aminoethyl)-1H-imidazol-2-yl)-N-(4-methoxypyridin-2-yl)-5-methyl-6-(1-methyl-1H-pyrazol-3-yl)pyrrolo[2,1-f][1,2,4]triazin-4-amine], the “% inh” value in the assay on Erk1/2 phosphorylation was “A (1-25% inhibition)”. Besides, the IC50 in assay [1] (setting [2]) was greater than 1000 nM.
`CO[C@H]1CC[C@H](Nc2nc(-c3nccn3C)nn3cc(-c4ccn(C)n4)c(C(=O)NC4CC4)c23)C1` (racemic) [Compound 182, rac N-Cyclopropyl-4-(((1S,3S)-3-methoxycyclo-pentyl)amino)-2-(1-methyl-1H-imidazol-2-yl)-6-(1-methyl-1H-pyrazol-3-yl)pyrrolo[2,1-f][1,2,4]triazine-5-carboxamide]: the “% inh” value in the assay with Erk1/2 phosphorylation was “A* (1-25% activation)”. Further, the IC50 in assay [1] (setting [2]) is greater than 1000 nM.
For `Cc1c(-c2ccn(C)n2)cn2nc(-c3nccn3C)nc(Nc3ccc(-n4ccnc4)cn3)c12` [Compound 242, N-(5-(1H-Imidazol-1-yl)pyridin-2-yl)-5-methyl-2-(1-methyl-1H-imidazol-2-yl)-6-(1-methyl-1H-pyrazol-3-yl)pyrrolo[2,1-f][1,2,4]triazin-4-amine], in that order: 0 (0% inhibition) and greater than 1000 nM.
In the case of `COc1cccc(Nc2nc(-c3ccccn3)nn3cc(-c4ccn(C(C)C)n4)c(C)c23)n1` [Compound 14, 6-(1-Isopropyl-1H-pyrazol-3-yl)-N-(6-methoxypyridin-2-yl)-5-methyl-2-(pyridin-2-yl)pyrrolo[2,1-f][1,2,4]triazin-4-amine], in the assay with Erk1/2 phosphorylation, the “% inh” value is reported as 0 (0% inhibition). Further, the IC50 in assay [1] (setting [2]) is greater than 1000 nM.
As for `COCCNC(=O)c1c(-c2ccn(C)n2)cn2nc(-c3nccn3C)nc(N[C@H]3CC[C@H](OC)C3)c12` (racemic) [Compound 183, rac 4-(((1S,3S)-3-Methoxycyclo-pentyl)amino)-N-(2-methoxyethyl)-2-(1-methyl-1H-imidazol-2-yl)-6-(1-methyl-1H-pyrazol-3-yl)pyrrolo[2,1-f][1,2,4]triazine-5-carboxamide], the “% inh” value in the assay on Erk1/2 phosphorylation is listed as “D* (85-100% activation)”. For the same compound, the IC50 in assay [1] (setting [2]) is greater than 1000 nM.
Taken in the same sequence, the figures for `COc1cccc(-c2cn3nc(-c4nccn4C)nc(N[C@H]4C[C@H](OC)C4)c3c2-c2ccccc2)c1OC` [Compound 219, 6-(2,3-Dimethoxyphenyl)-N-((1r,3r)-3-methoxycyclobutyl)-2-(1-methyl-1H-imidazol-2-yl)-5-phenylpyrrolo[2,1-f][1,2,4]triazin-4-amine] were “D (85-100% inhibition)” and 510 to 1000 nM.
With `COc1ccnc(Nc2nc(-c3nccn3C)nn3cc(-c4c(F)cccc4OC)c(-c4ccccc4)c23)c1` [Compound 217, 6-(2-Fluoro-6-methoxyphenyl)-N-(4-methoxypyridin-2-yl)-2-(1-methyl-1H-imidazol-2-yl)-5-phenylpyrrolo[2,1-f][1,2,4]triazin-4-amine], in the assay on Erk1/2 phosphorylation, the “% inh” value is on record as “D* (85-100% activation)”. In addition, in assay [1] (setting [2]), the IC50 was less than 150 nM.
Taken in the same sequence, the figures for `CO[C@H]1CC[C@@H](Nc2nc(-c3nccn3C)nn3cc(-c4ccncc4)c(-c4ccccc4)c23)C1` (racemic) [Compound 200, rac N-((1R,3S)-3-Methoxycyclopentyl)-2-(1-methyl-1H-imidazol-2-yl)-5-phenyl-6-(pyridin-4-yl)pyrrolo[2,1-f][1,2,4]triazin-4-amine] were “D* (85-100% activation)” and greater than 1000 nM.
As to `COc1cnc(Nc2nc(-c3nccn3C)nn3cc(-c4ccn(C)n4)c(C)c23)cc1C` [Compound 236, N-(5-Methoxy-4-methylpyridin-2-yl)-5-methyl-2-(1-methyl-1H-imidazol-2-yl)-6-(1-methyl-1H-pyrazol-3-yl)pyrrolo[2,1-f][1,2,4]triazin-4-amine], the “% inh” value with Erk1/2 phosphorylation is given as “D* (85-100% activation)”. Besides, the IC50 in assay [1] (setting [2]) was in the range of 150 to 500 nM.
Regarding `Cc1c(-c2ccn(C)n2)cn2nc(-c3nccn3C)nc(Nc3cc(N4CCOCC4)ccn3)c12` [Compound 222, 5-Methyl-2-(1-methyl-1H-imidazol-2-yl)-6-(1-methyl-1H-pyrazol-3-yl)-N-(4-morpholinopyridin-2-yl)pyrrolo[2,1-f][1,2,4]triazin-4-amine], in the assay on Erk1/2 phosphorylation, the “% inh” value is “A* (1-25% activation)”. Besides, the IC50 in assay [1] (setting [3]) is 1 to 10 nM; in assay [1] (setting [2]) it was less than 150 nM.
As for `Cc1cnc2c(c1)CCN2c1nc(-c2nccn2C)nn2cc(-c3ccn(C)n3)c(C)c12` [Compound 239, 5-Methyl-2-(1-methyl-1H-imidazol-2-yl)-6-(1-methyl-1H-pyrazol-3-yl)-4-(5-methyl-2,3-dihydro-1H-pyrrolo[2,3-b]pyridin-1-yl)pyrrolo[2,1-f][1,2,4]triazine], in the assay on Erk1/2 phosphorylation, the “% inh” value is “C* (46-84% activation)”. In addition, the IC50 in assay [1] (setting [2]) was less than 150 nM.
For the compound `COc1cc(Nc2nc(-c3nccn3C)nn3cc(-c4ccn(C)n4)c(C)c23)ncc1C1CC1` [Compound 238, N-(5-Cyclopropyl-4-methoxypyridin-2-yl)-5-methyl-2-(1-methyl-1H-imidazol-2-yl)-6-(1-methyl-1H-pyrazol-3-yl)pyrrolo[2,1-f][1,2,4]triazin-4-amine], the “% inh” value in the assay with Erk1/2 phosphorylation was “A (1-25% inhibition)”. Besides, the IC50 is 1 to 10 nM in assay [1] (setting [3]) and less than 150 nM in assay [1] (setting [2]).
Turning to `COc1cc(Nc2nc(-c3nccn3C)nn3cc(-c4cccnc4)c(-c4cccnc4)c23)ncn1` [Compound 170, N-(6-Methoxypyrimidin-4-yl)-2-(1-methyl-1H-imidazol-2-yl)-5,6-di(pyridin-3-yl)pyrrolo[2,1-f][1,2,4]triazin-4-amine], the “% inh” value in the assay on Erk1/2 phosphorylation is “A* (1-25% activation)”. For the same compound, the IC50 in assay [1] (setting [2]) was less than 150 nM.
Regarding `Cc1c(-c2ccn(C)n2)cn2nc(-c3nccn3C)nc(Nc3cc4c(cn3)CCO4)c12` [Compound 221, N-(5-Methyl-2-(1-methyl-1H-imidazol-2-yl)-6-(1-methyl-1H-pyrazol-3-yl)pyrrolo[2,1-f][1,2,4]triazin-4-yl)-2,3-dihydrofuro[3,2-c]pyridin-6-amine], the “% inh” value with Erk1/2 phosphorylation is listed as “A* (1-25% activation)”. For the same compound, the values for the IC50 in assay [1] (setting [3]) and in assay [1] (setting [2]) were 1 to 10 nM and less than 150 nM, respectively.
Take `COc1ccnc(N(C)c2nc(-c3nccn3C)nn3cc(-c4ccn(C)n4)c(C)c23)c1` [Compound 223, N-(4-Methoxypyridin-2-yl)-N,5-dimethyl-2-(1-methyl-1H-imidazol-2-yl)-6-(1-methyl-1H-pyrazol-3-yl)pyrrolo[2,1-f][1,2,4]triazin-4-amine]: the “% inh” value in the assay with Erk1/2 phosphorylation was “A (1-25% inhibition)”. In addition, in assay [1] (setting [2]), the IC50 is greater than 1000 nM.
Take `CO[C@H]1C[C@H](Nc2nc(-c3nccn3C)nn3cc(-c4ccc(CN)cc4)c(-c4ccccc4)c23)C1.Cl` [Compound 206, 6-(4-(Aminomethyl)phenyl)-N-((1r,3r)-3-methoxycyclobutyl)-2-(1-methyl-1H-imidazol-2-yl)-5-phenylpyrrolo[2,1-f][1,2,4]triazin-4-amine hydrochloride salt]: the “% inh” value in the assay with Erk1/2 phosphorylation was “B (26-49% inhibition)”. For the same compound, the IC50 in assay [1] (setting [2]) was greater than 1000 nM.
